{"source": "patent US10022308B2", "about": "“Wipe and methods for improving skin health” (Kimberly-Clark Worldwide, Inc., priority 2003, dated 2018)", "key": {"[1]": {"tested_on": "Lactobacillus acidophilus (ATCC #:314)", "experiment": "Adhesion assay for Lactobacillus acidophilus on synthetic skin substrate", "assay_type": "cell-based", "details": "50 μl of 10% botanical stock in TSB + 50 μl bacteria, 3 h at 33° C. or 37° C., VITRO-SKIN, AlamarBlue", "experimental": "The protocols for testing the ability of botanical compounds to elicit any of these desired effects are set forth in the Examples. In general, the ability of a botanical compound to affect the adherence of an organism to skin is determined by comparing the adherence of the organism to skin in the presence of the botanical compound, to the adherence of the organism to skin in the absence of the botanical compound. If the amount of adherence in the presence of the botanical compound is 150% or greater than the amount of adherence in the absence of the botanical compound, then the botanical compound is an adherence promoter for that organism. […]\n(§1) Results are given in Table 1, which gives the percent adherence to the skin of P. mirabilis, S. epidermidis, P. aeruginosa, L. acidophilus, and C. albicans for the various botanical compound samples, relative to the control. The percentage is based on the number of cells that adhered to the skin for the botanical samples as compared to the number of cells that adhered to the skin in the control, as determined by the AlamarBlue® levels. […]\nThe next day, the optical density (650 nm) of the Lactobacilli broth culture was read. […] AlamarBlue® levels were read (emission levels read at 590 nm) in an Ascent plate reader (excitation level of 544 nm) at 2 and 3 hours. […]"}, "[2]": {"tested_on": "S. epidermidis (ATCC #12228)", "experiment": "Adhesion assay for S. epidermidis on synthetic skin substrate", "assay_type": "cell-based, Staphylococcus epidermidis", "details": "50 μl of 10% botanical stock in TSB + 50 μl bacteria, 3 h room temperature, VITRO-SKIN, AlamarBlue", "experimental": "(§2) The protocols for testing the ability of botanical compounds to elicit any of these desired effects are set forth in the Examples. In general, the ability of a botanical compound to affect the adherence of an organism to skin is determined by comparing the adherence of the organism to skin in the presence of the botanical compound, to the adherence of the organism to skin in the absence of the botanical compound. If the amount of adherence in the presence of the botanical compound is 150% or greater than the amount of adherence in the absence of the botanical compound, then the botanical compound is an adherence promoter for that organism. If the amount of adherence in the presence of the botanical compound is 50% or less than the amount of adherence in the absence of the botanical compound, then the botanical compound is an anti-adherent for that organism.\n(§3) Each of the botanical compounds listed in Table 1 was screened to measure the effect of the compound on the adhesion of P. mirabilis, S. epidermidis, or P. aeruginosa to the skin. […]\n(§4) The next day, the optical density (650 nm) of the TSB culture was read. […] AlamarBlue® levels were read (emission levels read at 590 nm) in an Ascent plate reader (excitation level of 544 nm) at 1 and 2 hours. When not being read, the plate was incubated at 37° C. with a lid. […]"}, "[3]": {"tested_on": "P. mirabilis (ATCC #29906)", "experiment": "Adhesion assay for P. mirabilis on synthetic skin substrate", "assay_type": "cell-based, Proteus mirabilis", "details": "50 μl of 10% botanical stock in TSB + 50 μl bacteria, 3 h room temperature, VITRO-SKIN, AlamarBlue; >100% more cells adhered than control", "experimental": "as §2, §3, §4"}, "[4]": {"tested_on": "P. aeruginosa (ATCC #27853)", "experiment": "Adhesion assay for P. aeruginosa on synthetic skin substrate", "assay_type": "cell-based, Pseudomonas aeruginosa", "details": "50 μl of 10% botanical stock in TSB + 50 μl bacteria, 3 h room temperature, VITRO-SKIN, AlamarBlue", "experimental": "as §2, §3, §4"}, "[5]": {"tested_on": "C. albicans (ATCC #10231)", "experiment": "Adhesion assay for Candida albicans on synthetic skin substrate", "assay_type": "cell-based", "details": "50 μl of 10% botanical stock in TSB + 50 μl yeast, 3 h at 33° C., VITRO-SKIN, AlamarBlue", "experimental": "as §2, §1\nThe next day, the optical density (650 nm) of the SDB culture was read. […]"}}}
{"smiles": "CCCC(O)CO", "note": "(centres unmarked) [Hydrolite-5]", "values": [{"measurement": "percent adherence to the skin of L. acidophilus (LA) relative to the control", "setting": "[1]", "value": 169.66, "unit": "%"}, {"measurement": "percent adherence to the skin of S. epidermidis (SE) relative to the control", "setting": "[2]", "value": 141.5, "unit": "%"}, {"measurement": "percent adherence to the skin of P. mirabilis (PM) relative to the control", "setting": "[3]", "value": 9.2, "unit": "%"}, {"measurement": "percent adherence to the skin of P. aeruginosa (PA) relative to the control", "setting": "[4]", "value": 5.1, "unit": "%"}, {"measurement": "percent adherence to the skin of C. albicans (CA) relative to the control", "setting": "[5]", "value": 3.9, "unit": "%"}]}
